# Data reported in ChEMBL document CHEMBL5579796, “Inhibition of dengue viruses by N-methylcytisine thio derivatives through targeting viral envelope protein and NS2B-NS3 protease” (Bioorg Med Chem Lett, 2024).
# Active and inactive are the calls of the source. The calls are words filed in the database; no cut-off is given here.
# How the values were obtained:
# dengue virus type 2 [1] = experiment: Antiviral activity against DENV-2 16,681 infected in Vero E6 cells assessed as reduction in virus induced cytopathic effect at 10 uM incubated for 4 days by inverted microscopic analysis; format: functional, organism-based; conditions: time 4.0 day
# dengue virus type 2 [2] = experiment: Antiviral activity against DENV-2 16,681 infected in Vero E6 cells assessed as reduction in viral infection by measuring NS4B positive cells at 10 uM incubated for 4 days by immunofluorescence assay; format: functional; design: scale not given: the % may be the effect or the level left; conditions: time 4 day
# [3] = Cytotoxicity against african green monkey Vero E6 cells by MTT assay; format: toxicity, cell-based, Vero C1008; conditions: chlorocebus sabaeus
# dengue virus type 2 [4] = experiment: Antiviral activity against DENV-2 16,681 infected in Vero E6 cells assessed as reduction in virus induced cytopathic effect measured after 96 hrs by inverted microscopic analysis; format: functional, organism-based; conditions: Dengue virus, 16,681, Vero C1008, 96 h
# [5] = Selectivity index, ratio of CC50 for african green monkey Vero E6 cells to EC50 for antiviral activity against DENV-2 16,681 infected in Vero E6 cells; format: toxicity, cell-based; conditions: read-out: Ratio CC50/EC50
# [6] = Cytotoxicity against human A549 cells by MTT assay; format: toxicity, cell-based
# dengue virus type 2 [7] = experiment: Antiviral activity against DENV-2 16,681 infected in A549 cells assessed as reduction in virus induced cytopathic effect measured after 96 hrs by inverted microscopic analysis; format: functional, organism-based; conditions: Dengue virus, 16,681, A549, 96 h
# [8] = Selectivity index, ratio of CC50 for human A549 cells to EC50 for antiviral activity against DENV-2 16,681 infected in A549 cells; format: toxicity, cell-based; conditions: read-out: Ratio CC50/EC50
# dengue virus type 2 [9] = experiment: Antiviral activity against DENV-2 16,681 infected in Vero E6 cells assessed as reduction in viral infectivity by measuring NS4B-positive cells at 10 uM pretreated with compound for 1 hr followed by viral infection and washout measured after 96 hrs by immunofluorescence analysis; format: functional; design: scale not given: the % may be the effect or the level left
# dengue virus type 2 [10] = experiment: Antiviral activity against DENV-2 16,681 infected in Vero E6 cells assessed as reduction in viral infectivity by measuring NS4B-positive cells at 0.1 uM incubated for 1 hr followed by washout and measured after 96 hrs by immunofluorescence analysis; format: functional; design: scale not given: the % may be the effect or the level left
# dengue virus type 2 [11] = experiment: Antiviral activity against DENV-2 16,681 infected in Vero E6 cells assessed as reduction in viral infectivity by measuring NS4B-positive cells at 1 uM pretreated with virus for 1 hr followed by compound addition for 1 hr prior to washout and measured after 96 hrs by immunofluorescence analysis; format: functional; design: scale not given: the % may be the effect or the level left
# dengue virus type 2 [12] = experiment: Antiviral activity against DENV-2 16,681 infected in Vero E6 cells assessed as reduction in viral infectivity by measuring NS4B-positive cells pretreated with compound for 1 hr followed by viral infection and washout measured after 96 hrs by immunofluorescence analysis; format: functional, organism-based; conditions: Dengue virus, 16,681, Vero C1008
# dengue virus type 2 [13] = experiment: Antiviral activity against DENV-2 16,681 infected in Vero E6 cells assessed as reduction in viral infectivity by measuring NS4B-positive cells incubated for 1 hr followed by washout and measured after 96 hrs by immunofluorescence analysis; format: functional, organism-based; conditions: Dengue virus, 16,681, Vero C1008
# dengue virus type 2 [14] = experiment: Antiviral activity against DENV-2 16,681 infected in Vero E6 cells assessed as reduction in viral infectivity by measuring NS4B-positive cells pretreated with virus for 1 hr followed by compound addition for 1 hr prior to washout and measured after 96 hrs by immunofluorescence analysis; format: functional, organism-based; conditions: Dengue virus, 16,681, Vero C1008
# dengue virus type 2 [15] = experiment: Antiviral activity against DENV-2 16,681 infected in Vero E6 cells assessed as reduction in viral infectivity by measuring NS4B-positive cells incubated for 1 hr followed by washout and subsequent culturing; format: functional, organism-based; conditions: Dengue virus, 16,681, Vero C1008, 1 h
# Genome polyprotein = Genome polyprotein (dengue virus type 2, UniProt P29990); experiment: Inhibition of DENV-2 NS2B/NS3 protease expressed in HEK293 cells cotransfected with CFP-trrg-YFP incubated for 24 hrs by FRET assay; format: cell-based
Compound,Activity (dengue virus type 2 [1]),Activity (dengue virus type 2 [2]) [%],CC50 [3] [nM],EC50 (dengue virus type 2 [4]) [nM],selectivity ratio [5],CC50 [6] [nM],EC50 (dengue virus type 2 [7]) [nM],selectivity ratio [8],Activity (dengue virus type 2 [9]) [%],Activity (dengue virus type 2 [10]) [%],Activity (dengue virus type 2 [11]),EC50 (dengue virus type 2 [12]) [nM],EC50 (dengue virus type 2 [13]) [nM],EC50 (dengue virus type 2 [14]) [nM],EC50 (dengue virus type 2 [15]) [nM],IC50 (Genome polyprotein) [nM]
CN1C[C@H]2C[C@H](Cn3c2cccc3=O)C1=S,Active,64.9,–,–,–,–,–,–,–,–,–,–,–,–,–,–
CN1C[C@@H]2C[C@H](C1=S)c1cccc(=O)n1C2,Active,95,> 50000,5,> 10000,> 50000,2,> 25000,<40,>50,>60%,> 10000,20,670,100,2760
CN1C[C@H]2C[C@H](Cn3c2cccc3=S)C1=S,Active,60,–,–,–,–,–,–,–,–,–,–,–,–,–,–
CN1C[C@@H]2C[C@H](C1)c1cccc(=S)n1C2,Active,88.7,> 50000,940,> 53.2,> 50000,2110,> 23.7,<40,>50,inactive,> 10000,110,4080,1020,13500
CN1C[C@@H]2C[C@H](C1=S)c1cccc(=S)n1C2,Active,61,–,–,–,–,–,–,–,–,–,–,–,–,–,–
